Reference: patent USRE39591E1, “6-O-substituted ketolides having antibacterial activity” (Abbott Laboratories, priority 1996, dated 2007)
In brackets after ≈: the same amount, converted by molar mass.

System: up to 32 different microorganisms
Assay: in vitro antibacterial activity (MIC), agar dilution on Brain Heart Infusion (BHI) agar with Steers replicator
Type: cell-based
Conditions: unit assumed
Procedure, shortened: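 Twelve plates carried successive aqueous dilutions of test compound in BHI agar; inocula were 1:100 dilutions (1:10 for slow growers such as Micrococcus, Streptococcus), incubated 35°-37° C for 20 to 24 hours. MIC was the lowest concentration giving no growth, slight haze, or sparse isolated colonies versus growth control.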

[1] = Candida albicans CCH 442 (code TT)
[2] = Enterococcus faecism ATCC 8043 (code II)
[3] = Escherichia coli DC-2 (code SS)
[4] = Escherichia coli JUHL (code QQ)
[5] = Haemophilis influenzae DILL AMP R (code WW)
[6] = Micrococcus luteus ATCC 4698 (code PP)
[7] = Micrococcus luteus ATCC 9341 (code OO)
[8] = Nocardia Asteroides ATCC9970 (code VV)
[9] = Staphylococcus aureus 1775 (code GG)
[10] = Staphylococcus aureus A5177 (code BB)
[11] = Staphylococcus aureus A-5278 (code CC)
[12] = Staphylococcus aureus ATCC 6538P (code AA)
[13] = Staphylococcus aureus CMX 553 (code FF)
[14] = Staphylococcus aureus CMX 642A (code DD)
[15] = Staphylococcus aureus NCTC10649M (code EE)
[16] = Staphylococcus epidermidis 3519 (code HH)
[17] = Streptococcus Pneumonia 5649 (code ZZA)
[18] = Streptococcus Pneumonia 5979 (code ZZ)
[19] = Streptococcus Pneumonia ATCC6303 (code XX)
[20] = Streptococcus agalactiae CMX 508 (code KK)
[21] = Streptococcus bovis A-5169 (code JJ)
[22] = Streptococcus pyogenes 930 (code MM)
[23] = Streptococcus pyogenes EES61 (code LL)
[24] = Streptococcus pyogenes PIU 2548 (code NN)
[25] = Mycobacterium smegmatis ATCC 114 (code UU)
[26] = Streptococcus Pneumonia GYR 1171 (code YY)

CC[C@H]1OC(=O)[C@H](C)C(=O)[C@H](C)[C@@H](O[C@@H]2O[C@H](C)C[C@H](N(C)C)[C@H]2O)[C@@](C)(OCCNCc2ccncc2)C[C@@H](C)C(=O)[C@H](C)[C@@H](O)[C@]1(C)O [Example 12, Compound of Formula (VIII): X is O, R is —CH2CH2NHCH2-(4-pyridyl)]
MIC [1]: > 100 µg/mL | MIC [2]: 1.56 µg/mL | MIC [3]: > 100 µg/mL | MIC [4]: > 100 µg/mL | MIC (Escherichia coli SS (code RR)): 0.39 µg/mL | MIC [5]: 32 µg/mL | MIC [6]: 0.78 µg/mL | MIC [7]: 0.39 µg/mL | MIC [8]: 0.39 µg/mL | MIC [9]: > 100 µg/mL | MIC [10]: 3.1 µg/mL | MIC [11]: > 100 µg/mL | MIC [12]: 6.2 µg/mL | MIC [13]: 6.2 µg/mL | MIC [14]: 6.2 µg/mL | MIC [15]: 6.2 µg/mL | MIC [16]: 12.5 µg/mL | MIC [17]: 2 µg/mL | MIC [18]: > 128 µg/mL | MIC [19]: 0.25 µg/mL | MIC [20]: 0.78 µg/mL | MIC [21]: 0.2 µg/mL | MIC [22]: > 100 µg/mL | MIC [23]: 0.39 µg/mL | MIC [24]: 1.56 µg/mL

CCC1OC(=O)C(C)C(=O)C(C)C(OC2OC(C)CC(N(C)C)C2O)C(C)(OCC=Cc2ccc3ncc(-c4cccnc4)cc3c2)CC(C)C(=O)C(C)C2NC(=O)OC12C (centres unmarked) [Example 274]
MIC (organism code AA): 0.1 µg/mL (≈ 0.119 µM) | MIC (organism code BB): 0.1 µg/mL (≈ 0.119 µM) | MIC (organism code CC): > 100 µg/mL | MIC (organism code DD): 0.1 µg/mL (≈ 0.119 µM) | MIC (organism code EE): 0.1 µg/mL (≈ 0.119 µM) | MIC (organism code FF): 0.05 µg/mL (≈ 0.0593 µM) | MIC (organism code GG): > 100 µg/mL | MIC (organism code HH): 0.1 µg/mL (≈ 0.119 µM) | MIC (organism code II): 0.05 µg/mL (≈ 0.0593 µM) | MIC (organism code JJ): 0.01 µg/mL (≈ 0.0119 µM) | MIC (organism code KK): 0.01 µg/mL (≈ 0.0119 µM) | MIC (organism code LL): 0.01 µg/mL (≈ 0.0119 µM) | MIC (organism code MM): 6.2 µg/mL (≈ 7.35 µM) | MIC (organism code NN): 0.1 µg/mL (≈ 0.119 µM) | MIC (organism code OO): 0.01 µg/mL (≈ 0.0119 µM) | MIC (organism code PP): 0.1 µg/mL (≈ 0.119 µM) | MIC (organism code QQ): > 100 µg/mL | MIC (organism code RR): 0.2 µg/mL (≈ 0.237 µM) | MIC (organism code SS): > 100 µg/mL | MIC (organism code TT): > 100 µg/mL | MIC (organism code UU): 0.78 µg/mL (≈ 0.925 µM) | MIC (organism code VV): 0.05 µg/mL (≈ 0.0593 µM) | MIC (organism code WW): 4 µg/mL (≈ 4.74 µM) | MIC (organism code XX): ≤ 0.004 µg/mL | MIC (organism code YY): ≤ 0.004 µg/mL | MIC (organism code ZZ): 8 µg/mL (≈ 9.49 µM) | MIC (organism code ZZA): 0.25 µg/mL (≈ 0.297 µM)

CCC1OC(=O)C(C)C(=O)C(C)C(OC2OC(C)CC(N(C)C)C2O)C(C)(OCC=Cc2ccc3cccnc3c2)CC(C)C(=O)C(C)C2NC(=O)OC12C (centres unmarked) [Example 278, Compound of Formula (IX): L is CO, T is NH2, R is —CH2CH═CH-(7-quinolyl)]
MIC (organism code AA): 0.05 µg/mL | MIC (organism code BB): 0.05 µg/mL | MIC (organism code CC): > 100 µg/mL | MIC (organism code DD): 0.05 µg/mL | MIC (organism code EE): 0.05 µg/mL | MIC (organism code FF): 0.05 µg/mL | MIC (organism code GG): > 100 µg/mL | MIC (organism code HH): 0.1 µg/mL | MIC (organism code II): 0.05 µg/mL | MIC (organism code JJ): 0.01 µg/mL | MIC (organism code KK): 0.01 µg/mL | MIC (organism code LL): ≤ 0.005 µg/mL | MIC (organism code MM): 1.56 µg/mL | MIC (organism code NN): 0.2 µg/mL | MIC (organism code OO): 0.01 µg/mL | MIC (organism code PP): 0.1 µg/mL | MIC (organism code QQ): 25 µg/mL | MIC (organism code RR): 0.39 µg/mL | MIC (organism code SS): 12.5 µg/mL | MIC (organism code TT): > 100 µg/mL | MIC (organism code UU): 0.78 µg/mL | MIC (organism code VV): 0.02 µg/mL | MIC (organism code WW): 4 µg/mL | MIC (organism code XX): 0.03 µg/mL | MIC (organism code YY): 0.03 µg/mL | MIC (organism code ZZ): 128 µg/mL | MIC (organism code ZZA): 0.5 µg/mL

CCC1OC(=O)C(C)C(=O)C(C)C(OC2OC(C)CC(N(C)C)C2O)C(C)(OCC=Cc2cc3nccnc3cc2[N+](=O)[O-])CC(C)C(=O)C(C)C2NC(=O)OC12C (centres unmarked) [Example 200, R is —CH2CH═CH-(7-nitro-6-quinoxalinyl)]
MIC (organism code AA): 0.1 µg/mL (≈ 0.123 µM) | MIC (organism code BB): 0.1 µg/mL (≈ 0.123 µM) | MIC (organism code CC): > 100 µg/mL | MIC (organism code DD): 0.1 µg/mL (≈ 0.123 µM) | MIC (organism code EE): 0.1 µg/mL (≈ 0.123 µM) | MIC (organism code FF): 0.1 µg/mL (≈ 0.123 µM) | MIC (organism code GG): > 100 µg/mL | MIC (organism code HH): 0.1 µg/mL (≈ 0.123 µM) | MIC (organism code II): 0.02 µg/mL (≈ 0.0246 µM) | MIC (organism code JJ): 0.01 µg/mL (≈ 0.0123 µM) | MIC (organism code KK): 0.02 µg/mL (≈ 0.0246 µM) | MIC (organism code MM): 50 µg/mL (≈ 61.6 µM) | MIC (organism code NN): 0.2 µg/mL (≈ 0.246 µM) | MIC (organism code OO): 0.01 µg/mL (≈ 0.0123 µM) | MIC (organism code PP): 0.2 µg/mL (≈ 0.246 µM) | MIC (organism code QQ): 50 µg/mL (≈ 61.6 µM) | MIC (organism code RR): 0.39 µg/mL (≈ 0.48 µM) | MIC (organism code SS): 12.5 µg/mL (≈ 15.4 µM) | MIC (organism code TT): > 100 µg/mL | MIC (organism code UU): 0.78 µg/mL (≈ 0.961 µM) | MIC (organism code VV): 0.1 µg/mL (≈ 0.123 µM) | MIC (organism code WW): 2 µg/mL (≈ 2.46 µM) | MIC (organism code XX): ≤ 0.004 µg/mL | MIC (organism code YY): ≤ 0.004 µg/mL | MIC (organism code ZZ): > 128 µg/mL | MIC (organism code ZZA): 0.25 µg/mL (≈ 0.308 µM)

CCC1OC(=O)C(C)C(=O)C(C)C(OC2OC(C)CC(N(C)C)C2O)C(C)(OCC=Cc2cnc3ccc(Cl)cc3c2)CC(C)C(=O)C(C)C2NC(=O)OC12C (centres unmarked) [Example 191, R is —CH2CH═CH-(6-chloro-3-quinolyl)]
MIC [1]: > 100 µg/mL | MIC [2]: 0.05 µg/mL (≈ 0.0625 µM) | MIC [3]: 100 µg/mL (≈ 125 µM) | MIC [4]: 50 µg/mL (≈ 62.5 µM) | MIC (Escherichia coli SS (code RR)): 0.2 µg/mL (≈ 0.25 µM) | MIC [5]: 2 µg/mL (≈ 2.5 µM) | MIC [6]: 0.1 µg/mL (≈ 0.125 µM) | MIC [7]: 0.01 µg/mL (≈ 0.0125 µM) | MIC [25]: 0.39 µg/mL (≈ 0.487 µM) | MIC [8]: 0.02 µg/mL (≈ 0.025 µM) | MIC [9]: > 100 µg/mL | MIC [10]: 0.05 µg/mL (≈ 0.0625 µM) | MIC [11]: > 100 µg/mL | MIC [12]: 0.05 µg/mL (≈ 0.0625 µM) | MIC [13]: 0.05 µg/mL (≈ 0.0625 µM) | MIC [14]: 0.05 µg/mL (≈ 0.0625 µM) | MIC [15]: 0.1 µg/mL (≈ 0.125 µM) | MIC [16]: 0.05 µg/mL (≈ 0.0625 µM) | MIC [17]: 0.25 µg/mL (≈ 0.312 µM) | MIC [18]: 2 µg/mL (≈ 2.5 µM) | MIC [19]: 0.03 µg/mL (≈ 0.0375 µM) | MIC [26]: 0.03 µg/mL (≈ 0.0375 µM) | MIC [20]: 0.05 µg/mL (≈ 0.0625 µM) | MIC [22]: 3.1 µg/mL (≈ 3.87 µM) | MIC [23]: 0.02 µg/mL (≈ 0.025 µM) | MIC [24]: 0.1 µg/mL (≈ 0.125 µM)

CC[C@H]1OC(=O)[C@H](C)C(=O)[C@H](C)[C@@H](O[C@@H]2O[C@H](C)C[C@H](N(C)C)[C@H]2O)[C@@](C)(OCCCc2cnc3ccccc3c2)C[C@@H](C)C2=NCCN3C(=O)O[C@@]1(C)[C@H]3[C@H]2C [Example 171, Compound of Formula (VII): A, B, D, and E are H, R is —CH2CH2CH2-(3-quinolyl)]
MIC [1]: > 100 µg/mL | MIC [2]: 0.05 µg/mL | MIC [3]: 25 µg/mL | MIC [4]: 25 µg/mL | MIC (Escherichia coli SS (code RR)): 0.39 µg/mL | MIC [5]: 2 µg/mL | MIC [6]: 0.39 µg/mL | MIC [7]: 0.01 µg/mL | MIC [25]: 0.78 µg/mL | MIC [8]: 0.05 µg/mL | MIC [9]: > 100 µg/mL | MIC [10]: 0.05 µg/mL | MIC [11]: > 100 µg/mL | MIC [12]: 0.1 µg/mL | MIC [13]: 0.05 µg/mL | MIC [14]: 0.05 µg/mL | MIC [15]: 0.02 µg/mL | MIC [16]: 0.1 µg/mL | MIC [17]: 1 µg/mL | MIC [18]: > 16 µg/mL | MIC [19]: 0.03 µg/mL | MIC [26]: 0.03 µg/mL | MIC [20]: 0.02 µg/mL | MIC [21]: ≤ 0.005 µg/mL | MIC [22]: 25 µg/mL | MIC [23]: ≤ 0.005 µg/mL | MIC [24]: 0.2 µg/mL
